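Method: 48-hour compound exposure of cells in 96-well plates, five concentrations, linear interpolation of endpoints. GI50: concentration for 50% inhibition of growth.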 Activity calls are given as the source filed them. No stated cut-off is given here; in the data, active = GI50 up to about 1.1 µM and inactive = higher.
How the values were obtained:
Assay in all cases: NCI-60 cell line screen, 48 h
[1] = test system: CCRF-CEM
[2] = test system: MDA-N
[3] = test system: UO-31
[4] = test system: M14
[5] = test system: SNB-75
[6] = test system: K562
[7] = test system: NCI-H522
[8] = test system: KM12
[9] = test system: TK-10
[10] = test system: U-251
[11] = test system: SF-268
[12] = test system: SNB-19
[13] = test system: DU-145
[14] = test system: 786-0
[15] = test system: SR
[16] = test system: SF-295
[17] = test system: MDA-MB-435
[18] = test system: OVCAR-3
[19] = test system: MDA-MB-231
[20] = test system: SK-MEL-2

Row | Structure (SMILES) | GI50 [1] | GI50 [2] | GI50 [3] | GI50 [4] | GI50 [5] | GI50 [6] | GI50 [7] | GI50 [8] | GI50 [9] | GI50 [10] | GI50 [11] | GI50 [12] | GI50 [13] | GI50 [14] | GI50 [15] | GI50 [16] | GI50 [17] | GI50 [18] | GI50 [19] | GI50 [20]
1 | C(=N\NC1=NCCN1)/c1cccc2cc3ccncc3nc12 | 1.1 µM (active) | 2.89 µM (inactive) | 3.21 µM (inactive) | 12.6 µM (inactive) | 0.259 µM (active) | 1.36 µM (inactive) | 3.33 µM (inactive) | 5.73 µM (inactive) | 10.4 µM (inactive) | 1.94 µM (inactive) | 3.85 µM (inactive) | 9.53 µM (inactive) | 7.23 µM (inactive) | 1.95 µM (inactive) | 1.08 µM (active) | 3.04 µM (inactive) | 2.49 µM (inactive) | 4.81 µM (inactive) | 2.15 µM (inactive) | 
2 | CC(/C=N\NC(=S)N(C)C)=N/NC(=S)N(C)C |  | 8.93 µM (inactive) | 0.158 µM (active) | 0.393 µM (active) | 0.557 µM (active) | 0.582 µM (active) | 0.243 µM (active) | 1.78 µM (inactive) | 0.507 µM (active) | 0.29 µM (active) | 0.251 µM (active) | 0.721 µM (active) | 0.195 µM (active) | 0.509 µM (active) |  | 0.147 µM (active) | 0.881 µM (active) | 0.317 µM (active) | 29 µM (inactive) | 0.303 µM (active)
3 | O=c1c(-c2ccccc2Cl)coc2cc(F)ccc12 | 24.3 µM (inactive) | 3.79 µM (inactive) | 20.4 µM (inactive) | 14.3 µM (inactive) | 17.5 µM (inactive) |  | 10.6 µM (inactive) | 21.5 µM (inactive) | 47.9 µM (inactive) | 10.2 µM (inactive) | 40.7 µM (inactive) | 22.9 µM (inactive) | 27 µM (inactive) | 30.4 µM (inactive) |  | 19.4 µM (inactive) | 2.1 µM (inactive) | 30.7 µM (inactive) | 19.4 µM (inactive) | 66.4 µM (inactive)
4 | C=C(C)CCC1C=[N+]([O-])OC(C)(C)C1(C)C (centres undefined) | 33.3 µM (inactive) | > 100 µM (inactive) | > 100 µM (inactive) | > 100 µM (inactive) | > 100 µM (inactive) | > 100 µM (inactive) | > 100 µM (inactive) | > 100 µM (inactive) | > 100 µM (inactive) | > 100 µM (inactive) | > 100 µM (inactive) |  | > 100 µM (inactive) | > 100 µM (inactive) | > 100 µM (inactive) | > 100 µM (inactive) | > 100 µM (inactive) | > 100 µM (inactive) | > 100 µM (inactive) | 
5 | Cc1ccc(CNc2ccc(Br)cc2)cc1 | 11.5 µM (inactive) | 25.4 µM (inactive) | 13.5 µM (inactive) | 59.6 µM (inactive) | 37.3 µM (inactive) | 22.9 µM (inactive) | 17.7 µM (inactive) | 16.3 µM (inactive) | 40 µM (inactive) | 28.1 µM (inactive) | 31.9 µM (inactive) | > 100 µM (inactive) | 90.4 µM (inactive) | 48.3 µM (inactive) | 18.8 µM (inactive) | 47.8 µM (inactive) | 22.8 µM (inactive) | 34.8 µM (inactive) | 19.3 µM (inactive) | 
6 | O=c1[nH]nc(Cc2ccccc2)n1/N=C/c1ccccc1O | > 100 µM (inactive) | > 100 µM (inactive) | > 100 µM (inactive) | > 100 µM (inactive) |  | > 100 µM (inactive) | > 100 µM (inactive) | > 100 µM (inactive) | > 100 µM (inactive) | 45 µM (inactive) | 50.1 µM (inactive) | 79.8 µM (inactive) | > 100 µM (inactive) | 41.5 µM (inactive) |  | 57.7 µM (inactive) | > 100 µM (inactive) | > 100 µM (inactive) | 63.2 µM (inactive) | > 100 µM (inactive)
7 | Cc1ccc2c(c1)NC(=O)CC(c1ccccc1)=N2 |  | 23.7 µM (inactive) | 63.1 µM (inactive) | > 100 µM (inactive) | 76.7 µM (inactive) | 5.18 µM (inactive) | 45.6 µM (inactive) | 43.9 µM (inactive) | > 100 µM (inactive) | > 100 µM (inactive) | > 100 µM (inactive) | > 100 µM (inactive) | > 100 µM (inactive) | > 100 µM (inactive) | 23.7 µM (inactive) | > 100 µM (inactive) | 31 µM (inactive) | > 100 µM (inactive) | 23.7 µM (inactive) | > 100 µM (inactive)
